Test results as given in patent US6951652B2, “Vaccine for prevention of gram-negative bacterial infections and endotoxin related diseases” (BioSynth S.r.l., priority 1998, dated 2005).
Ends that are not written are not given here.

Experiment: In vitro saturation of lipid A binding site by peptide
Settings: stoichiometric saturation

Lys-Thr-Lys-Cys-Lys-Phe-Leu-Lys-Lys-Cys (KTKCKFLKKC; also: cyclic, ring type not given here) [SAEP2]
affinity of binding to lipid A binding site: high affinity
